Source: patent US4605641A, “Synthetic vasoactive intestinal peptide analogs” (Hoffmann-La Roche Inc., priority 1984, dated 1986)
Peptide text beside a SMILES is read from it.

System: guinea pig trachea smooth muscle
Experiment: Bronchodilator (relaxant) effect on isolated guinea pig tracheal rings
Format: cell-based
Conditions: for Relative Potency: guinea pig trachea, relative to VIP = 100%; for EC50: guinea pig tracheal rings, relaxation as % of maximum response to VIP 10^-6 M, three tissues pooled, linear regression, read-out: EC50 (M), agonist activity, bronchodilator effect
Description: The bronchodilatory effect of VIP analogs was studied in a model utilizing guinea pig trachea. Wasserman, M. A. et al. "Comparative In Vitro Tracheal Relaxant Effects of Porcine and Hen VIP" in Vasoactive Intestinal Peptide ed. Said, S.I., Raven Press (New York, 1982).
All tissues were taken from male albino guinea pigs weighing 400-600 g, anesthetized with urethane 2 g/kg i.p. After exsanguination the trachea was removed and divided into four ring segments (3 mm length). Each ring was suspended by two 30 guage stainless steel wires in a 10 ml jacket tissue bath and attached via 4-0 silk thread to a Grass force displacement transducer (model FT03C, Grass Instrument Co., Quincy, MA), for isometric recording of tension. The smooth muscle was bathed in modified Krebs solution of the following composition: NaCl, 120 mM; KCl, 4.7 mM; CaCl2, 2.5 mM; MgSO4.7H2 O; 1.2 mM; NaHCO3, 25 mM; KH2 PO4 monobasic, 1.2 mM; and dextrose, 10 mM. Tissue baths were maintained at 37.5° C. and constantly bubbled with 95% O2 and 5% CO2. Responses were recorded on an 8 channel and 4 channel Hewlett-Packard (model 7702B and 7754A, respectively) recorder (Hewlett Packard, Paramus, NJ). Tracheal rings were placed under a resting tension of 1.5 g which was determined to be at or near optimal in preliminary experiments. Frequent readjustments of tension were required during the 60 min. stabilization period which followed. Tissues were rinsed at 15 min. intervals.
Cumulative concentration response curves were obtained for each tissue by successive […] in the bath concentration of VIP or potential VIP agonists according to the method of VanRossum J. M., Arch. Int Pharmacodyn, 143, 299-330 (1963). Only one cummulative dose response curve was obtained on a single piece of tissue. To minimize variability between tissues, relaxant responses are expressed as a percentage of the maximum response obtainable to VIP (10^-6 M=100%) added at the end of the concentration response curve. Responses obtained from three tissues were pooled and EC50 values were determined by linear regression.

Row | SMILES | Relative Potency [%] | EC50 [M]
1 | CCCC[C@H](NC(=O)[C@H](CCC(N)=O)NC(=O)[C@H](CCCCN)NC(=O)[C@H](CCCNC(=N)N)NC(=O)[C@H](CC(C)C)NC(=O)[C@H](CCCNC(=N)N)NC(=O)[C@@H](NC(=O)[C@H](Cc1ccc(O)cc1)NC(=O)[C@H](C)NC(=O)[C@H](CC(=O)O)NC(=O)[C@@H](NC(=O)[C@H](Cc1ccccc1)NC(=O)[C@@H](NC(=O)[C@H](C)NC(=O)[C@H](CC(=O)O)NC(=O)[C@H](CO)NC(=O)[C@@H](N)Cc1c[nH]cn1)C(C)C)[C@@H](C)O)[C@@H](C)O)C(=O)N[C@@H](C)C(=O)N[C@H](C(=O)N[C@@H](CCCCN)C(=O)N[C@@H](CCCCN)C(=O)N[C@@H](Cc1ccc(O)cc1)C(=O)N[C@@H](CC(C)C)C(=O)N[C@@H](CC(N)=O)C(=O)N[C@@H](CO)C(=O)N[C@H](C(=O)N[C@@H](CC(C)C)C(=O)N[C@@H](CC(N)=O)C(N)=O)[C@@H](C)CC)C(C)C [(Ala^9, Nle^17)--VIP, (Ala^9, Nle^17)VIP] (HELM PEPTIDE1{H.S.D.A.V.F.T.D.A.Y.T.R.L.R.K.Q.[Nle].A.V.K.K.Y.L.N.S.I.L.N.[am]}$$$$V2.0) | 100 | 1e-08
2 | CCCC[C@H](NC(=O)[C@H](CCC(N)=O)NC(=O)[C@H](CCCCN)NC(=O)[C@H](CCCCN)NC(=O)[C@H](CC(C)C)NC(=O)[C@H](CCCCN)NC(=O)[C@@H](NC(=O)[C@H](Cc1ccc(O)cc1)NC(=O)[C@H](CC(N)=O)NC(=O)[C@H](CC(=O)O)NC(=O)[C@@H](NC(=O)[C@H](Cc1ccccc1)NC(=O)[C@@H](NC(=O)[C@H](C)NC(=O)[C@H](CC(=O)O)NC(=O)[C@H](CO)NC(=O)[C@@H](N)Cc1c[nH]cn1)C(C)C)[C@@H](C)O)[C@@H](C)O)C(=O)N[C@@H](C)C(=O)N[C@H](C(=O)N[C@@H](CCCCN)C(=O)N[C@@H](CCCCN)C(=O)N[C@@H](Cc1ccc(O)cc1)C(=O)N[C@@H](CC(C)C)C(=O)N[C@@H](CC(N)=O)C(=O)N[C@@H](CO)C(=O)N[C@H](C(=O)N[C@@H](CC(C)C)C(=O)N[C@H](C(N)=O)[C@@H](C)O)C(C)C)C(C)C [(Lys^12, Lys^14, Nle^17, Val^26, Thn^28, (Lys^12, Lys^14, Nle^17, Val^26, Thr^28)VIP] (HELM PEPTIDE1{H.S.D.A.V.F.T.D.N.Y.T.K.L.K.K.Q.[Nle].A.V.K.K.Y.L.N.S.V.L.T.[am]}$$$$V2.0) | 143 | 7e-09
3 | CCCC[C@H](NC(=O)[C@H](CCC(N)=O)NC(=O)[C@H](CCCCN)NC(=O)[C@H](CCCNC(=N)N)NC(=O)[C@H](CC(C)C)NC(=O)[C@H](CCCCN)NC(=O)[C@@H](NC(=O)[C@H](Cc1ccc(O)cc1)NC(=O)[C@H](CC(N)=O)NC(=O)[C@H](CC(=O)O)NC(=O)[C@@H](NC(=O)[C@H](Cc1ccccc1)NC(=O)[C@@H](NC(=O)[C@H](C)NC(=O)[C@H](CC(=O)O)NC(=O)[C@H](CO)NC(=O)[C@@H](N)Cc1c[nH]cn1)C(C)C)[C@@H](C)O)[C@@H](C)O)C(=O)N[C@@H](C)C(=O)N[C@H](C(=O)N[C@@H](CCCCN)C(=O)N[C@@H](CCCCN)C(=O)N[C@@H](Cc1ccc(O)cc1)C(=O)N[C@@H](CC(C)C)C(=O)N[C@@H](CC(N)=O)C(=O)N[C@@H](CO)C(=O)N[C@H](C(=O)N[C@@H](CC(C)C)C(=O)N[C@H](C(N)=O)[C@@H](C)O)C(C)C)C(C)C [(Lys^12, Nle^17, Val^26, Thr^28)--VIP, (Lys^12, Nle^17, Val^26, Thr^28)VIP] (HELM PEPTIDE1{H.S.D.A.V.F.T.D.N.Y.T.K.L.R.K.Q.[Nle].A.V.K.K.Y.L.N.S.V.L.T.[am]}$$$$V2.0) | 286 | 3.5e-09
4 | CCCC[C@H](NC(=O)[C@H](CCC(N)=O)NC(=O)[C@H](CCCCN)NC(=O)[C@H](CCCCN)NC(=O)[C@H](CC(C)C)NC(=O)[C@H](CCCNC(=N)N)NC(=O)[C@@H](NC(=O)[C@H](Cc1ccc(O)cc1)NC(=O)[C@H](CC(N)=O)NC(=O)[C@H](CC(=O)O)NC(=O)[C@@H](NC(=O)[C@H](Cc1ccccc1)NC(=O)[C@@H](NC(=O)[C@H](C)NC(=O)[C@H](CC(=O)O)NC(=O)[C@H](CO)NC(=O)[C@@H](N)Cc1c[nH]cn1)C(C)C)[C@@H](C)O)[C@@H](C)O)C(=O)N[C@@H](C)C(=O)N[C@H](C(=O)N[C@@H](CCCCN)C(=O)N[C@@H](CCCCN)C(=O)N[C@@H](Cc1ccc(O)cc1)C(=O)N[C@@H](CC(C)C)C(=O)N[C@@H](CC(N)=O)C(=O)N[C@@H](CO)C(=O)N[C@H](C(=O)N[C@@H](CC(C)C)C(=O)N[C@@H](CC(N)=O)C(N)=O)[C@@H](C)CC)C(C)C [(Lys^14, Nle^17)--VIP, (Lys^14, Nle^17)VIP] (HELM PEPTIDE1{H.S.D.A.V.F.T.D.N.Y.T.R.L.K.K.Q.[Nle].A.V.K.K.Y.L.N.S.I.L.N.[am]}$$$$V2.0) | 172 | 5.8e-09
5 | CCCC[C@H](NC(=O)[C@H](CCC(N)=O)NC(=O)[C@H](CCCCN)NC(=O)[C@H](CCCNC(=N)N)NC(=O)[C@H](CC(C)C)NC(=O)[C@H](CCCNC(=N)N)NC(=O)[C@@H](NC(=O)[C@H](Cc1ccc(O)cc1)NC(=O)[C@H](CC(N)=O)NC(=O)[C@H](CC(=O)O)NC(=O)[C@@H](NC(=O)[C@H](Cc1ccccc1)NC(=O)[C@@H](NC(=O)[C@H](C)NC(=O)[C@H](CC(=O)O)NC(=O)[C@H](CO)NC(=O)[C@@H](N)Cc1c[nH]cn1)C(C)C)[C@@H](C)O)[C@@H](C)O)C(=O)N[C@@H](C)C(=O)N[C@H](C(=O)N[C@@H](CCCCN)C(=O)N[C@@H](CCCCN)C(=O)N[C@@H](Cc1ccc(O)cc1)C(=O)N[C@@H](CC(C)C)C(=O)N[C@H](C(=O)N[C@@H](CO)C(=O)N[C@H](C(=O)N[C@@H](CC(C)C)C(=O)N[C@@H](CC(N)=O)C(N)=O)[C@@H](C)CC)[C@@H](C)O)C(C)C [(Nle^17, Thr^24)--VIP, (Nle^17, Thr^24)VIP] (HELM PEPTIDE1{H.S.D.A.V.F.T.D.N.Y.T.R.L.R.K.Q.[Nle].A.V.K.K.Y.L.T.S.I.L.N.[am]}$$$$V2.0) | 125 | 8e-09
6 | CCCC[C@H](NC(=O)[C@H](CCC(N)=O)NC(=O)[C@H](CCCCN)NC(=O)[C@H](CCCNC(=N)N)NC(=O)[C@H](CC(C)C)NC(=O)[C@H](CCCNC(=N)N)NC(=O)[C@@H](NC(=O)[C@H](Cc1ccc(O)cc1)NC(=O)[C@H](CC(N)=O)NC(=O)[C@H](CC(=O)O)NC(=O)[C@@H](NC(=O)[C@H](Cc1ccccc1)NC(=O)[C@@H](NC(=O)[C@H](C)NC(=O)[C@H](CC(=O)O)NC(=O)[C@H](CO)NC(=O)[C@@H](N)Cc1c[nH]cn1)C(C)C)[C@@H](C)O)[C@@H](C)O)C(=O)N[C@@H](C)C(=O)N[C@H](C(=O)N[C@@H](CCCCN)C(=O)N[C@@H](CCCCN)C(=O)N[C@@H](Cc1ccc(O)cc1)C(=O)N[C@@H](CC(C)C)C(=O)N[C@@H](CC(N)=O)C(=O)N[C@H](C(=O)N[C@H](C(=O)N[C@@H](CC(C)C)C(=O)N[C@@H](CC(N)=O)C(N)=O)[C@@H](C)CC)[C@@H](C)O)C(C)C [(Nle^17, Thr^25)--VIP, (Nle^17, Thr^25)VIP] (HELM PEPTIDE1{H.S.D.A.V.F.T.D.N.Y.T.R.L.R.K.Q.[Nle].A.V.K.K.Y.L.N.T.I.L.N.[am]}$$$$V2.0) | 101 | 9.9e-09
7 | CCCC[C@H](NC(=O)[C@H](CCC(N)=O)NC(=O)[C@H](CCCCN)NC(=O)[C@H](CCCNC(=N)N)NC(=O)[C@H](CC(C)C)NC(=O)[C@H](CCCNC(=N)N)NC(=O)[C@@H](NC(=O)[C@H](Cc1ccc(O)cc1)NC(=O)[C@H](CC(N)=O)NC(=O)[C@H](CC(=O)O)NC(=O)[C@@H](NC(=O)[C@H](Cc1ccccc1)NC(=O)[C@@H](NC(=O)[C@H](C)NC(=O)[C@H](CC(=O)O)NC(=O)[C@H](CO)NC(=O)[C@@H](N)Cc1c[nH]cn1)C(C)C)[C@@H](C)O)[C@@H](C)O)C(=O)N[C@@H](C)C(=O)N[C@H](C(=O)N[C@@H](CCCCN)C(=O)N[C@@H](CCCCN)C(=O)N[C@@H](Cc1ccc(O)cc1)C(=O)N[C@@H](CC(C)C)C(=O)N[C@@H](CC(N)=O)C(=O)N[C@@H](CO)C(=O)N[C@H](C(=O)N[C@@H](CC(C)C)C(=O)N[C@H](C(N)=O)[C@@H](C)O)[C@@H](C)CC)C(C)C [(Nle^17, Thr^28)--VIP, (Nle^17, Thr^28)VIP] (HELM PEPTIDE1{H.S.D.A.V.F.T.D.N.Y.T.R.L.R.K.Q.[Nle].A.V.K.K.Y.L.N.S.I.L.T.[am]}$$$$V2.0) | 108 | 9.3e-09
